These results are taken from patent US11464821B2, “Composition for reducing cancer cachexia or weight loss caused by anticancer drug therapy or radiation therapy comprising ginseng extract having increased ginsenoside Rg3 and Rh2” (GREEN CROSS WELLBEING CORPORATION, priority 2013, dated 2022).

Common to all, as to format: in vivo, Balb/c-nu/nu mice
The test system of series [1] is animal models xenografted with HT-29 colon cancer cell line. As to the method:
(§1) 6-wk-old Balb/c-nu/nu female mice weighing 20±2 g were obtained from Orient Inc., and housed in animal rooms under a temperature of 23±1° C., relative humidity of 55±15%, and 12-hour light/dark illumination cycle. […] After acclamation for 1 week, 100 μl of HT-29 cells (5×10^6 cells/mouse) were subcutaneously injected into the flank of the Balb/c nu/nu mouse, and the mice were observed by the naked eyes. The mice were randomized into groups when the tumor size reached 150 mm^3, and then drug administration was initiated. Voluntary motor activity (running wheel activity) and forced motor activity (swimming test) were measured after the administration of anticancer drug and drugs was completed, and the amount of glycogen synthesized in the muscle was assayed through an ELISA kit after the tissue taken from the femoral region on the final date of autopsy was homogenized. Running wheel activity (Running distance=meter/10 min)
(§2) All the examples and comparative examples were diluted in phosphate buffered saline (PBS) according to the dosage, and compulsorily administered to the animals using needle for oral administration (Sonde). The dosage was diluted in PBS to 100 mg/kg of body weight, and the dosage was calculated such that 100 μl/20 g was administered depending on the weight measured on the day of administration. Test materials were administered at the same time once per day, at 10 AM, for 4 weeks, for the examples and comparative examples.
Evaluation was conducted in the same conditions as in test example 1, except that all the examples and comparative examples were compared in the conditions of treatment with an anticancer drug. The treatment with 5-FU as an anticancer drug was conducted at 30 mg/kg three times per week.

The test system is the same in series [2]. The series is described as follows: Glycogen synthesized in femoral muscle (ELISA kit) under radiation treatment, test example 3. As to the method:
as §1, §2
Evaluation was conducted in the same conditions as in test example 1, except that all the examples and comparative examples were compared in the conditions of radiation treatment. The radiation treatment was conducted at 10 Gy three times per week.

For series [3] the test system is unchanged. The experiment in a line: Swimming test (forced motor activity), test example 1. The conditions noted are these: HT-29 xenografted mice, 100 mg/kg oral, every day for 4 weeks. As to the method: as §1
A transparent temperature-constant water bath (500 mm×500 mm×400 mm), which maintained the designated temperature and water level, was filled with warm water (23±1° C.), and then the animals were subjected to forced swimming (FS). The swimming time immediately after total exhaustion was recorded. […]

Series [4] shares this test system. The series is described as follows: Running wheel activity (voluntary motor activity), test example 1. The conditions noted are these: HT-29 xenografted mice, 100 mg/kg oral, every day for 4 weeks. As for the experimental part: as §1
The voluntary motor activity was measured as the parameter of cancer-related fatigue (CRF) through running wheel activity. The number of wheels ran for a total of 10 min on 300Ø wheel was counted, and running distance was calculated. *Running distance=circumference (30 cm×3.14)×number of wheels/10 min […]

Like-named read-outs stand apart in the source and are kept apart here. Marks after values point to notes of the source that are not given here.

For `NC(=O)C[S+]([O-])C(c1ccccc1)c1ccccc1` (stereo not drawn) [Comparative example 12, Modafinil], the “Mean Muscle Glycogen” value was found to be 4.3 ± 0.5 mg/g in series [1] (HT-29 xenografted mice, co-administered with 5-FU 30 mg/kg i.p. 3 days per week, 100 mg/kg oral daily for 4 weeks, femoral muscle) and 3.9 ± 0.2 mg/g in series [2] (HT-29 xenografted mice, with radio therapy 10 Gy 3 days per week, oral daily for 4 weeks, femoral muscle). In addition, the “Increase (%) in glycogen synthesis, compared with control” value was 18.4% in series [1] (co-administered with 5-FU 30 mg/kg i.p. 3 days per week, 100 mg/kg oral daily for 4 weeks, vs 5-FU control) and 7.9% in series [2] (with radio therapy 10 Gy 3 days per week, oral daily for 4 weeks, vs radio therapy control). Further, the “amount of glycogen synthesis compared with control group administered with the anticancer drug (in words)” value in series [1] (co-administered with 5-FU for 4 weeks) is “did not show any great change”. Also, the “amount of glycogen synthesis compared with control group treated with radiation (in words)” value in series [2] (combined with radiation treatment for 4 weeks) is recorded as “did not show any great change”. Besides, the “Total swimming time” value in series [3] (forced swimming to exhaustion, water 23±1° C.) turned out to be 731.8 ± 60.1 s. The “Increase (%) in swimming time, compared with control” value in series [3] (vs xenograft control) is 63.5%. In series [4], the “Running distance for 10 min (meter/10 min)” value is on record as 80.1 ± 1.9** meter/10 min. Also, the “Incerase (%) in running distance for 10 min, compared with control” value in series [4] (vs xenograft control) is 52.6%.
In the case of `O=c1[nH]cc(F)c(=O)[nH]1` [Example 5-FU, 5-fluorouracil], in series [1] (mouse, in vivo), the “Mean Muscle Glycogen (mg/g), 5-FU control” value is recorded as 3.6 ± 0.34 mg/g and the “reduction of amount of glycogen synthesis compared with the normal groups” value was 51.4%.
